Patent US12257225B2, “Polyoxometalate complexes and pharmaceutical compositions” (Emory University, priority 2016, dated 2025)
Several values for one entry are separate records, joined by “and”; a condition that tells them apart may be missing. Equal values may be shown once. Entries after “also recorded” stand apart in the source; their conditions may differ.

Legend:
KB-3-1 cancer cells = assay: Apoptosis of KB-3-1 cancer cells; type: cell-based, human
Procedure: Apoptosis was measured after cancer cells were treated with the drug for 48 hr. […] Cancer cells were cultured with VPOA-6 (5 or 10 μM) with or without NAC (3 mM) for 48 hr before apoptosis measurement.

KB-CP.5 cancer cells = assay: Apoptosis of cisplatin-resistant KB-CP.5 cancer cells; type: cell-based, human
Procedure: Apoptosis was measured after cells treated with VPOA-6 at different concentrations for 48 hr. […] NAC rescues the VPOA-6-induced apoptosis in KB-CP.5 cancer cells. Cancer cells were cultured with VPOA-6 (5 or 10 μM) with or without ROS scavenging agent NAC (3 mM) for 48 hr before apoptosis measurement.

KB-3-1 cells = assay: Total cellular ROS by flow cytometry, KB-3-1; type: cell-based, human
Excerpt: Transition-metal-based polyoxoanions sometimes have the ability to catalyze a range of oxidation reactions and to generate the free radicals under mild conditions. Although it is not intended that embodiments of this disclosure be limited by any particular mechanism, it is quite reasonable that VPOA-6 may enhance the production or accumulation of reactive oxygen species (ROS) in cancer cells leading to oxidative stress and cell death. To test this hypothesis, the levels of total cellular ROS (H2O2) were measured using flow cytometry. […] To assess the functional importance of ROS induction in the VPOA-6-treated KB-3-1 cells, cells were co-treated with both VPOA-6 (5 and 10 μM) and a ROS scavenger N-acetyl-L-cysteine (NAC, 3 mM).

[1] = test system: normal proliferating cells; assay: Selective killing of cancer versus normal proliferating cells; type: cell-based; conditions: for activity and selectivity, KB-3-1 versus normal cells: simple vanadium compounds
Procedure: (§1) A variety of cancer or normal cells were grown in 96-well plates and treated with VPOA-6 at 0-20 μM for 72 h. Cytotoxicity was measured using cell counting kit-8.
The effect of VPOA-6 on the viability of a spectrum of cancer cells and normal proliferating cells were then evaluated. […] In particular, four major types of human cancer cell lines, A549 (lung), U87 (brain), SKOV-3 (ovarian), and KB-3-1 (cervical), are highly sensitive to VPOA-6 with IC50 values below 5 μM.

KB-3-1 cancer cell line = assay: Cytotoxicity, cell counting kit-8, KB-3-1; type: cell-based, human; conditions: KB-3-1 cells, 72 h
Procedure: as §1
The effective catalytic oxidation of cellular antioxidants by VPOA-6, led to an assessment of the viability of both cancer and normal cell lines in the presence of VPOA-6. Four VPOA analogues (FIG. 1B) for selectivity of VPOA-6 in killing cancer cells by cytotoxicity towards the fast-growing KB-3-1 cancer cell line.
(§2) Cell lines used in this study are as follows.

[2] = test system: KB-3-1 human cervical carcinoma; assay: KB-3-1 xenograft mouse model, antitumor efficacy; type: in vivo, mice; conditions: for tumor inhibition effect: 16 μmol/kg i.p.
Excerpt: In vivo antitumor effect of VPOA-6. Inhibition of human head-and-neck KB-3-1 tumor growth by VPOA-6 treatment in tumor-bearing mice. […] Mice were then euthanized, vital organs collected and processed for histological examination.
Human cervical cancer is one of the most aggressive forms of human cancer. […] Specifically when using i.p. administration, the tumor volume of VPOA-6-treated group at a dose of 40 μmol/kg was less than 40% of that control group at the end point. […] Evaluation of VPOA-6 side effects. A central issue in developing new chemotherapeutics is to minimize the side effects associated with the non-specific interaction of the drugs with normal organ tissues.

[3] = Side effects in treated tumor-bearing mice; type: in vivo
Excerpt: Mice were then euthanized, vital organs collected and processed for histological examination.

[4] = test system: KB-CP.5, cisplatin-resistant cervical carcinoma cell; assay: Cytotoxicity, cell counting kit-8, KB-CP.5; type: cell-based, human
Procedure: as §1
(§3) The high incidence of drug resistance is a major challenge in treatment of relapsed and refractory cancers. […] The resistance of tumor cells to platinum-based chemotherapeutics is known to be associated with increased GSH levels; whereas cancer cells with high GSH levels are frequently more sensitive to drugs that affect GSH43.
as §2

[5] = test system: SKOV-3, ovarian carcinoma cell; assay: Cytotoxicity, cell counting kit-8, SKOV-3; type: cell-based, human; conditions: SKOV-3 cells, 72 h
Procedure: as §1, §2

cancer cells [6] = test system: cancer cells
[7] = Catalysis of ascorbic acid oxidation; type: biochemical; conditions: air or peroxide, physiological conditions
[8] = test system: OVCAR-3, ovarian carcinoma; assay: Cytotoxicity, cell counting kit-8, OVCAR-3; type: cell-based, human; conditions: OVCAR-3 cells, 72 h
Procedure: as §1, §2

[9] = test system: D556, medulloblastoma cell; assay: Cytotoxicity, cell counting kit-8, D556; type: cell-based; conditions: D556 cells, 72 h
Procedure: as §1, §2

cancer cells [10] = assay: TUNEL and Annexin V-PE staining assays; type: cell-based; conditions: normal proliferating cells remain alive
Procedure: (§4) One aspect of selectivity is the efficacy ratio of a therapeutic agent for normal cells versus cancer cells. In sharp contrast to cancer cells, human embryonic kidney HEK 293, human lung MRC-5, and human bronchus BEAS-2B normal cells are viable at VPOA-6 concentrations up to 20 μM. […] A fluorescent-labeling technique successfully images the uptake of VPOA-6 into living cells showing that cancer cells readily internalize this nanodrug within 8 hr even at very low concentrations (1 μM).

KB-CP.5 cancer cell = assay: ROS in drug-resistant KB-CP.5 cells; type: cell-based, human
[11] = test system: human embryonic kidney HEK 293; type: cell-based
Procedure: as §1
One aspect of selectivity is the efficacy ratio of a therapeutic agent for normal cells versus cancer cells.
as §2

[12] = Catalysis of glutathione oxidation monitored by 1H NMR; type: biochemical
Procedure: GSH (10 mM) in deuterated PBS (1×, pH 7.4) solution at 37° C. in a cell culture incubator. The arrow on the top spectrum indicates the chemical shift of a dominant peak (absent here) in the oxidation product (GSSG).
Vanadium-containing compounds have extensive redox properties and consequently catalyze several organic substrate oxidations via free radical mechanisms. VPOA-6 is a highly efficient catalyst for oxidizing glutathione (GSH), the primary intracellular antioxidant, through both aerobic oxidation and peroxidation under physiologically relevant conditions. Glutathione is the most abundant cellular reducing metabolite with concentrations in the millimolar range and is regarded as the primary mechanism for protecting cells against oxidative stress during proliferation and growth. In order to evaluate the inherent catalytic capability of VPOA-6, proton nuclear magnetic resonance (1H NMR) spectroscopy was used to monitor the in vitro oxidation of GSH. Two reactions were designed for this purpose, GSH reacting with air (O2) and, separately, GSH reacting with peroxide (H2O2) in PBS buffer (1×pH 7.4) at 37° C.

[13] = pH 7.4
[14] = test system: NCI-H460, large cell lung carcinoma; assay: Cytotoxicity, cell counting kit-8, NCI-H460; type: cell-based, human; conditions: NCI-H460 cells, 72 h
Procedure: as §1, §2

[15] = test system: KB-8-5, multi-drug resistant cervical carcinoma cell; assay: Cytotoxicity, cell counting kit-8, KB-8-5; type: cell-based, human; conditions: KB-8-5 cells, 72 h
Procedure: as §1, §3, §2

cancer cells [16] = assay: Uptake into living cells by fluorescent labeling; type: cell-based; conditions: 1 μM
Procedure: as §4

CC(=O)N[C@@H](CS)C(=O)O [NAC, N-acetyl-L-cysteine, reference compound]
effect of NAC on VPOA-6-induced apoptosis (KB-3-1 cancer cells; KB-3-1, VPOA-6 5 or 10 μM, NAC 3 mM, 48 hr): rescues | effect of NAC on VPOA-6-induced apoptosis (KB-CP.5 cancer cells; KB-CP.5, VPOA-6 5 or 10 μM, NAC 3 mM, 48 hr): rescues | effect of NAC on ROS and cell killing by VPOA-6 (KB-3-1 cells; KB-3-1, VPOA-6 5 and 10 μM, NAC 3 mM): reduces ROS and the cell killing by VPOA-6

[Na+].[Na+].[Na+].[O]=[V]([O-])([O-])[O-] [Na3VO4]
activity and selectivity, KB-3-1 versus normal cells [1]: active but nonselective

[Na+].[O]=[V](=[O])[O-] [NaVO3]
activity and selectivity, KB-3-1 versus normal cells [1]: active but nonselective

CCCC[N+](CCCC)(CCCC)CCCC [TBA Cl, reference compound]
IC50 (KB-3-1 cancer cell line): 289 ± 12 µM

[O]=[V](=[O])[O][V](=[O])=[O] [V2O5]
activity and selectivity, KB-3-1 versus normal cells [1]: active but nonselective

N.N.[Cl][Pt][Cl] [cisplatin, reference compound]
tumor inhibition effect ([2]; weekly for 24 days): did not exhibit any tumor inhibition effect | mortality ([3]; increased dosages): widespread death | health and body weight of treated mice ([3]; treatment period): deteriorated health and severe body weight loss | resistance of KB-CP.5 compared to parental KB-3-1 ([4]; KB-CP.5 versus KB-3-1): ca. 40 fold | IC50 [5]: 4.4 µM | IC50 (KB-3-1 cancer cell line): 2.8 µM

OO [hydrogen peroxide]
interaction with VPOA-6 in killing cancer cells (cancer cells [6]): acted synergistically with VPOA-6

[V6O13{(OCH2)3CCH2OH}2] [VPOA-OH]
IC50 (KB-3-1 cancer cell line): 21 ± 1.47 µM

[V6O13{(OCH2)3CCH3}2] [VPOA-CH3]
IC50 (KB-3-1 cancer cell line): 16.21 ± 0.08 µM

[V6O13{(OCH2)3CNH3}2] [VPOA-6]
tumor inhibition effect ([2]; weekly for 24 days): clearly demonstrated the antitumor effect | tumor volume relative to control group at the end point ([2]; 40 μmol/kg i.p., weekly for 24 days): less than 40% | tumor growth inhibition, overall ([2]; i.p. or i.v., KB-3-1 xenografted mice): significantly inhibits growth; also recorded: quite effective | tumor inhibition ([2]; i.v. administration): more significant tumor inhibition | nephrotoxicity ([3]; mouse, in vivo): not observed | apoptosis (KB-3-1 cancer cells; KB-3-1, 48 hr): Dose-dependent apoptosis | catalysis of ascorbic acid oxidation [7]: efficiently catalyzes ascorbic acid oxidation | IC50 [8]: 10.8 ± 0.49 µM | apoptosis (KB-CP.5 cancer cells; KB-CP.5): remarkable apoptosis | IC50 [9]: 7.36 ± 0.54 µM | apoptosis by TUNEL and Annexin V-PE staining (cancer cells [10]): dramatic apoptosis of the cancer cells | ROS levels (KB-CP.5 cancer cell): dramatic ROS increase | toxicity in cell viability studies [11]: much less so | product of GSH oxidation ([12]; H2O2, PBS pH 7.4, 37° C., after 30 minutes): over-oxidized product, GS(═O)SG | time for conversion of GSH to GSSG ([12]; air, GSH 10 mM, PBS pH 7.4, 37° C.): ≤ 30 min | selective killing: cytotoxicity in cancer versus normal proliferating cells ([1]; 0-20 μM, 72 h): no cytotoxicity in normal proliferating cells; also recorded: induces cell death in cancer cells (Tumor) but not in normal proliferating cells (Normal) | stability [13]: stable | IC50 [14]: 8.69 ± 0.91 µM | IC50 ([4]; KB-CP.5 cells, 72 h): 5.53 µM | IC50 [15]: 3.7 µM | time to internalization by cancer cells (cancer cells [16]): ≤ 8 h | IC50 [5]: 3.12 ± 0.05 µM | ROS levels (KB-3-1 cells; KB-3-1, 5 and 10 μM, versus non-treated cells): significant surge in ROS levels | IC50 (KB-3-1 cancer cell line): 3.45 µM and < 5 µM | ROS and apoptosis in normal cells (normal cells): ROS increase but did not show obvious apoptosis

[V6O13{(OCH2)3CNO2}2] [VPOA-NO2]
IC50 (KB-3-1 cancer cell line): 13.7 ± 0.15 µM
